{"source": "patent US9056899B2", "about": "(priority 2008, dated 2015)", "origin": "cited, not measured here", "conditions_in_all_cases": "cited from earlier work", "key": {"[1]": {"system": "BW25113 and gene knockouts"}, "[2]": {"system": "BW25113 and gene knockouts from KEIO collection"}, "[3]": {"system": "BW25113 and gene knockouts from KEIO collection", "remark": "listed apart in the source"}, "[4]": {"system": "BW25113 and gene knockouts", "remark": "listed apart in the source"}}, "note": "Read-outs that look alike come from different tables or passages of the source."}
{"compound": "gentamicin", "values": [{"measurement": "MIC Plating", "setting": "[1]; BW25113 starting strain", "value": 0.8, "unit": "µg/mL"}, {"measurement": "MIC Plating", "setting": "[1]; JW5360 knockout", "value": ">0.8", "unit": "µg/mL"}, {"measurement": "MIC Plating", "setting": "[1]; dapF knockout", "value": 0.7, "unit": "µg/mL"}, {"measurement": "MIC Plating", "setting": "[1]; envC knockout", "value": ">0.5", "unit": "µg/mL"}, {"measurement": "MIC Plating", "setting": "[1]; gpmM knockout", "value": 0.7, "unit": "µg/mL"}, {"measurement": "MIC Plating", "setting": "[1]; hflK knockout", "value": 0.5, "unit": "µg/mL"}, {"measurement": "MIC Plating", "setting": "[1]; rfaC knockout", "value": 0.7, "unit": "µg/mL"}, {"measurement": "MIC Plating", "setting": "[1]; rffA knockout", "value": 0.7, "unit": "µg/mL"}, {"measurement": "MIC Plating", "setting": "[1]; rnt knockout", "value": 0.7, "unit": "µg/mL"}, {"measurement": "MIC Plating", "setting": "[1]; rplI knockout", "value": 0.7, "unit": "µg/mL"}, {"measurement": "MIC Plating", "setting": "[1]; rpmE knockout", "value": 0.6, "unit": "µg/mL"}, {"measurement": "MIC Plating", "setting": "[1]; rpoN knockout", "value": 0.5, "unit": "µg/mL"}, {"measurement": "MIC Plating", "setting": "[1]; sapC knockout", "value": 0.5, "unit": "µg/mL"}, {"measurement": "MIC Plating", "setting": "[1]; secG knockout", "value": 0.5, "unit": "µg/mL"}, {"measurement": "MIC Plating", "setting": "[1]; tatC knockout", "value": 0.5, "unit": "µg/mL"}, {"measurement": "MIC Plating", "setting": "[1]; tolC knockout", "value": 0.5, "unit": "µg/mL"}, {"measurement": "MIC Plating", "setting": "[1]; tusC knockout", "value": 0.5, "unit": "µg/mL"}, {"measurement": "MIC Plating", "setting": "[1]; tusD knockout", "value": 0.5, "unit": "µg/mL"}, {"measurement": "MIC Plating", "setting": "[1]; xapR knockout", "value": ">0.5", "unit": "µg/mL"}, {"measurement": "MIC Plating", "setting": "[1]; yciM knockout", "value": ">0.7", "unit": "µg/mL"}, {"measurement": "MIC Plating", "setting": "[1]; yfgC knockout", "value": ">0.5", "unit": "µg/mL"}, {"measurement": "MIC Plating", "setting": "[1]; yidD knockout", "value": 0.5, "unit": "µg/mL"}]}
{"compound": "O=C(O)c1cn(C2CC2)c2cc(N3CCNCC3)c(F)cc2c1=O", "note": "[Ciprofloxacin]", "values": [{"measurement": "MIC Plating", "setting": "[2]; BW25113 starting strain", "value": 0.02, "unit": "µg/mL"}, {"measurement": "MIC Plating", "setting": "[2]; acrA knockout", "value": 0.0075, "unit": "µg/mL"}, {"measurement": "MIC Plating", "setting": "[2]; acrB knockout", "value": 0.008, "unit": "µg/mL"}, {"measurement": "MIC Plating", "setting": "[2]; deoT knockout", "value": 0.0075, "unit": "µg/mL"}, {"measurement": "MIC Plating", "setting": "[2]; dksA knockout", "value": 0.01, "unit": "µg/mL"}, {"measurement": "MIC Plating", "setting": "[2]; fis knockout", "value": ">0.00875", "unit": "µg/mL"}, {"measurement": "MIC Plating", "setting": "[2]; hfq knockout", "value": 0.0075, "unit": "µg/mL"}, {"measurement": "MIC Plating", "setting": "[2]; hrpA knockout", "value": 0.00875, "unit": "µg/mL"}, {"measurement": "MIC Plating", "setting": "[2]; ihfA knockout", "value": 0.0075, "unit": "µg/mL"}, {"measurement": "MIC Plating", "setting": "[2]; pgmB knockout", "value": 0.01, "unit": "µg/mL"}, {"measurement": "MIC Plating", "setting": "[2]; qmcA knockout", "value": ">0.00875", "unit": "µg/mL"}, {"measurement": "MIC Plating", "setting": "[2]; recA knockout", "value": ">0.00875", "unit": "µg/mL"}, {"measurement": "MIC Plating", "setting": "[2]; recB knockout", "value": 0.0075, "unit": "µg/mL"}, {"measurement": "MIC Plating", "setting": "[2]; recC knockout", "value": ">0.00875", "unit": "µg/mL"}, {"measurement": "MIC Plating", "setting": "[2]; recG knockout", "value": 0.006, "unit": "µg/mL"}, {"measurement": "MIC Plating", "setting": "[2]; recN knockout", "value": 0.01, "unit": "µg/mL"}, {"measurement": "MIC Plating", "setting": "[2]; rimK knockout", "value": ">0.00875", "unit": "µg/mL"}, {"measurement": "MIC Plating", "setting": "[2]; rseA knockout", "value": ">0.00875", "unit": "µg/mL"}, {"measurement": "MIC Plating", "setting": "[2]; ruvA knockout", "value": 0.01, "unit": "µg/mL"}, {"measurement": "MIC Plating", "setting": "[2]; ruvC knockout", "value": ">0.00875", "unit": "µg/mL"}, {"measurement": "MIC Plating", "setting": "[2]; tolC knockout", "value": 0.005, "unit": "µg/mL"}, {"measurement": "MIC Plating", "setting": "[2]; uvrD knockout", "value": 0.006, "unit": "µg/mL"}, {"measurement": "MIC Plating", "setting": "[2]; xseA knockout", "value": 0.006, "unit": "µg/mL"}, {"measurement": "MIC Plating", "setting": "[2]; xseB knockout", "value": 0.008, "unit": "µg/mL"}, {"measurement": "MIC Plating", "setting": "[2]; ybgC knockout", "value": 0.0075, "unit": "µg/mL"}, {"measurement": "MIC Plating", "setting": "[2]; ybgF knockout", "value": 0.0075, "unit": "µg/mL"}, {"measurement": "MIC Plating", "setting": "[2]; ychJ knockout", "value": 0.0075, "unit": "µg/mL"}, {"measurement": "MIC Plating", "setting": "[2]; yciM knockout", "value": 0.0075, "unit": "µg/mL"}, {"measurement": "MIC Plating", "setting": "[2]; ygcO knockout", "value": 0.0075, "unit": "µg/mL"}, {"measurement": "MIC Plating", "setting": "[2]; yjjY knockout", "value": 0.00875, "unit": "µg/mL"}, {"measurement": "MIC E-Test", "setting": "[3]; BW25113 starting strain", "value": 0.016, "unit": "µg/mL"}, {"measurement": "MIC E-Test", "setting": "[3]; fis knockout", "value": 0.006, "unit": "µg/mL"}, {"measurement": "MIC E-Test", "setting": "[3]; recA knockout", "value": 0.002, "unit": "µg/mL"}, {"measurement": "MIC E-Test", "setting": "[3]; recC knockout", "value": 0.008, "unit": "µg/mL"}, {"measurement": "MIC E-Test", "setting": "[3]; recG knockout", "value": 0.006, "unit": "µg/mL"}, {"measurement": "MIC E-Test", "setting": "[3]; ruvC knockout", "value": 0.008, "unit": "µg/mL"}, {"measurement": "MIC E-Test", "setting": "[3]; tolC knockout", "value": 0.004, "unit": "µg/mL"}, {"measurement": "MIC E-Test", "setting": "[3]; uvrD knockout", "value": 0.005, "unit": "µg/mL"}, {"measurement": "MIC E-Test", "setting": "[3]; xseA knockout", "value": 0.006, "unit": "µg/mL"}]}
{"compound": "Cc1cc(NS(=O)(=O)c2ccc(N)cc2)no1", "note": "[Sulfamethaxazone]", "values": [{"measurement": "MIC Plating", "setting": "[4]; BW25113 starting strain", "value": 1000, "unit": "µg/mL"}, {"measurement": "MIC Plating", "setting": "[4]; JW5115 knockout", "value": 400, "unit": "µg/mL"}, {"measurement": "MIC Plating", "setting": "[4]; JW5474 knockout", "value": 500, "unit": "µg/mL"}, {"measurement": "MIC Plating", "setting": "[4]; dapF knockout", "value": 300, "unit": "µg/mL"}, {"measurement": "MIC Plating", "setting": "[4]; dcd knockout", "value": ">550", "unit": "µg/mL"}, {"measurement": "MIC Plating", "setting": "[4]; degP knockout", "value": 500, "unit": "µg/mL"}, {"measurement": "MIC Plating", "setting": "[4]; deoT knockout", "value": 550, "unit": "µg/mL"}, {"measurement": "MIC Plating", "setting": "[4]; dksA knockout", "value": 550, "unit": "µg/mL"}, {"measurement": "MIC Plating", "setting": "[4]; dnaK knockout", "value": 300, "unit": "µg/mL"}, {"measurement": "MIC Plating", "setting": "[4]; envC knockout", "value": 400, "unit": "µg/mL"}, {"measurement": "MIC Plating", "setting": "[4]; fis knockout", "value": 600, "unit": "µg/mL"}, {"measurement": "MIC Plating", "setting": "[4]; gpmM knockout", "value": 400, "unit": "µg/mL"}, {"measurement": "MIC Plating", "setting": "[4]; hns knockout", "value": 550, "unit": "µg/mL"}, {"measurement": "MIC Plating", "setting": "[4]; lpdA knockout", "value": 400, "unit": "µg/mL"}, {"measurement": "MIC Plating", "setting": "[4]; lptB knockout", "value": 500, "unit": "µg/mL"}, {"measurement": "MIC Plating", "setting": "[4]; nudB knockout", "value": 350, "unit": "µg/mL"}, {"measurement": "MIC Plating", "setting": "[4]; pgmB knockout", "value": 500, "unit": "µg/mL"}, {"measurement": "MIC Plating", "setting": "[4]; pstA knockout", "value": 550, "unit": "µg/mL"}, {"measurement": "MIC Plating", "setting": "[4]; pstS knockout", "value": 550, "unit": "µg/mL"}, {"measurement": "MIC Plating", "setting": "[4]; qmcA knockout", "value": 550, "unit": "µg/mL"}, {"measurement": "MIC Plating", "setting": "[4]; recA knockout", "value": 400, "unit": "µg/mL"}, {"measurement": "MIC Plating", "setting": "[4]; recB knockout", "value": 350, "unit": "µg/mL"}, {"measurement": "MIC Plating", "setting": "[4]; recC knockout", "value": 350, "unit": "µg/mL"}, {"measurement": "MIC Plating", "setting": "[4]; recG knockout", "value": 500, "unit": "µg/mL"}, {"measurement": "MIC Plating", "setting": "[4]; resA knockout", "value": ">550", "unit": "µg/mL"}, {"measurement": "MIC Plating", "setting": "[4]; rfaE knockout", "value": 550, "unit": "µg/mL"}, {"measurement": "MIC Plating", "setting": "[4]; rimK knockout", "value": 350, "unit": "µg/mL"}, {"measurement": "MIC Plating", "setting": "[4]; rplA knockout", "value": 500, "unit": "µg/mL"}, {"measurement": "MIC Plating", "setting": "[4]; rpmF knockout", "value": 550, "unit": "µg/mL"}, {"measurement": "MIC Plating", "setting": "[4]; rpsU knockout", "value": 500, "unit": "µg/mL"}, {"measurement": "MIC Plating", "setting": "[4]; tolC knockout", "value": 400, "unit": "µg/mL"}, {"measurement": "MIC Plating", "setting": "[4]; xapR knockout", "value": ">550", "unit": "µg/mL"}, {"measurement": "MIC Plating", "setting": "[4]; ybeY knockout", "value": 500, "unit": "µg/mL"}, {"measurement": "MIC Plating", "setting": "[4]; ybgF knockout", "value": ">550", "unit": "µg/mL"}, {"measurement": "MIC Plating", "setting": "[4]; yciM knockout", "value": ">550", "unit": "µg/mL"}, {"measurement": "MIC Plating", "setting": "[4]; yciS knockout", "value": 550, "unit": "µg/mL"}, {"measurement": "MIC Plating", "setting": "[4]; ydjI knockout", "value": ">550", "unit": "µg/mL"}, {"measurement": "MIC Plating", "setting": "[4]; yfgL knockout", "value": 400, "unit": "µg/mL"}, {"measurement": "MIC Plating", "setting": "[4]; ygcO knockout", "value": 550, "unit": "µg/mL"}, {"measurement": "MIC Plating", "setting": "[4]; yiiU knockout", "value": 550, "unit": "µg/mL"}, {"measurement": "MIC Plating", "setting": "[4]; yjjY knockout", "value": ">550", "unit": "µg/mL"}, {"measurement": "MIC Plating", "setting": "[4]; ylcG knockout", "value": 500, "unit": "µg/mL"}, {"measurement": "MIC Plating", "setting": "[4]; ymfI knockout", "value": 500, "unit": "µg/mL"}, {"measurement": "MIC Plating", "setting": "[4]; yneE knockout", "value": 550, "unit": "µg/mL"}]}
